Laboratory results as given in ChEMBL document CHEMBL4043238, “Discovery of N-substituted 7-azaindoles as Pan-PIM kinase inhibitors - Lead series identification - Part II” (Bioorg Med Chem Lett, 2017).

Legend:
[1] = target: Serine/threonine-protein kinase pim-2 (Homo sapiens, UniProt Q9P1W9); assay: Inhibition of PIM2 (unknown origin) assessed as reduction in BAD phosphorylation at Ser112 residues by TR-FRET assay
[2] = target: Serine/threonine-protein kinase pim-3 (Homo sapiens, UniProt Q86V86); assay: Inhibition of PIM3 (unknown origin) assessed as reduction in BAD phosphorylation at Ser112 residues by TR-FRET assay
[3] = target: Serine/threonine-protein kinase pim-1 (Homo sapiens, UniProt P11309); assay: Inhibition of PIM1 (unknown origin) assessed as reduction in BAD phosphorylation at Ser112 residues by TR-FRET assay
Liver [4] = assay: Stability in human liver microsomes; format: ADME, microsome
Liver [5] = assay: Stability in mouse liver microsomes; format: ADME, microsome
Liver [6] = assay: Stability in rat liver microsomes; format: ADME, microsome
KG-1 = assay: Antiproliferative activity against human KG1 cells; format: functional, cell-based
[7] = target: Voltage-gated inwardly rectifying potassium channel KCNH2 (Homo sapiens, UniProt Q12809); assay: Inhibition of human ERG by patch clamp assay
Cytochrome P450 3A4 [8] = target: T1, Cytochrome P450 3A4 (Homo sapiens, UniProt P08684); assay: Inhibition of CYP3A4 (unknown origin) using testosterone as substrate; format: ADME
[9] = Permeability from apical to basolateral side in human Caco2/TC7 cells at 5 uM; format: ADME, cell-based; conditions: Caco-2, read-out: permeability
Cytochrome P450 3A4 [10] = target: T1, Cytochrome P450 3A4; assay: Inhibition of CYP3A4 (unknown origin) using midazolam as substrate; format: ADME

IC50 [1]	IC50 [2]	IC50 [3]	Compound	further results
640 nM	69 nM	31 nM	Cn1c(I)c(Cl)c2c(Cl)cc(C(N)=O)nc21	
16 nM		1 nM	Cn1cc(-c2c(Cl)c3c(Cl)cc(C(N)=O)nc3n2C2CCCNC2)cn1 (stereo not given)	
148 nM	17 nM	3 nM	NC(=O)c1cc(Cl)c2c(Cl)c(I)n(CCC3CCNCC3)c2n1	
116 nM	25 nM	8 nM	NC(=O)c1cc(Cl)c2c(Cl)c(I)n(C3CCC(O)CC3)c2n1 (stereo not given)	
34 nM	6 nM	2 nM	CN1CCC(n2c(I)c(Cl)c3c(Cl)cc(C(N)=O)nc32)CC1	
6 nM	3 nM	1 nM	NC(=O)c1cc(Cl)c2c(Cl)c(I)n(C3CCC(N)CC3)c2n1 (stereo not given)	
24 nM		4 nM	CC(C)=Cc1c(Cl)c2c(Cl)cc(C(N)=O)nc2n1C1CCCNC1 (stereo not given)	
99 nM	12 nM	4 nM	NC(=O)c1cc(Cl)c2c(Cl)c(I)n(CC3CCNCC3)c2n1	
135 nM		31 nM	NC(=O)c1cc(Cl)c2c(Cl)c(C3CCCO3)n(C3CCCNC3)c2n1 (stereo not given)	
15 nM		3 nM	CSc1c(Cl)c2c(Cl)cc(C(N)=O)nc2n1C1CCCNC1 (stereo not given)	
28 nM	4 nM	2 nM	NC(=O)c1cc(Cl)c2c(Cl)c(I)n(C3CCNCC3)c2n1	
25 nM		67 nM	NC(=O)c1cc(Cl)c2c(Cl)c(C(F)(F)F)n(C3CCCNC3)c2n1 (stereo not given)	
4220 nM	350 nM	250 nM	NC(=O)c1cc(Cl)c2c(Cl)c(I)n(C3CNC3)c2n1	
1950 nM		37 nM	Cc1c(-c2ccc(N3CCN(C)CC3)cc2)n(C)c2nc(C(N)=O)cc(Cl)c12	
22 nM		4 nM	NC(=O)c1cc(Cl)c2c(Cl)c(C3CC3)n([C@@H]3CCCNC3)c2n1	Stability (Liver [4]): 3%; Stability (Liver [5]): 11%; Stability (Liver [6]): 8%; IC50 (KG-1): 822 nM; IC50 [7]: 1500 nM; IC50 (Cytochrome P450 3A4 [8]): > 30000 nM; Papp A→B at 5 µM [9]: 3.6 ×10⁻⁶ cm/s; IC50 (Cytochrome P450 3A4 [10]): > 30000 nM
9 nM		3 nM	NCC1CCC(n2c(I)c(Cl)c3c(Cl)cc(C(N)=O)nc32)CC1 (stereo not given)	
298 nM		42 nM	COCC1CC1c1c(Cl)c2c(Cl)cc(C(N)=O)nc2n1C1CCCNC1 (stereo not given)	
